Assay results reported in patent US20210147371A1, “OXADIAZOLINE DERIVATIVES” (Bayer Aktiengesellschaft, priority 2018, published 2021).
Like-named read-outs stand apart in the source and are kept apart here. Blank lines part the entries; values can stand above or below the compound they belong to.

Assay: Log P by HPLC on reversed phase columns (EEC directive 79/831 Annex V.A8)
Type: physicochemical
Procedure: Measurement of Log P values was performed according to EEC directive 79/831 Annex V.A8 by HPLC (High Performance Liquid Chromatography) on reversed phase columns with the following methods: • [^a]
If more than one Log P value is available within the same method, all the values are given and separated by “+”.
Calibration was done with straight-chain alkan2-ones (with 3 to 16 carbon atoms) with known Log P values (measurement of Log P values using retention times with linear interpolation between successive alkanones). Lambda-max-values were determined using UV-spectra from 200 nm to 400 nm and the peak values of the chromatographic signals.

[1] = reversed phase HPLC columns, method [a]: LC-UV, acidic range, 0.1% formic acid in water and acetonitrile, compounds of formula (I), read-out: Log P
[2] = method [a]: LC-UV, acidic range, 0.1% formic acid in water and acetonitrile, compounds of formula (I), read-out: Log P

chromatographic logP [1]: 2.69
Compound: FC(F)(F)C1NC(c2ccc3nn(Cc4ccccc4)cc3c2)=NO1 (stereo not shown) [Compound I-24, 2-Benzyl-5-[(trifluoromethyl)-4,5-dihydro-1,2,4-oxadiazol-3-yl]-2H-indazole]

chromatographic logP (reversed phase HPLC columns, method [a]: LC-UV, acidic range, 0.1% formic acid in water and acetonitrile, intermediates of formula (IV), read-out: LogP): 4.03
Compound: FC(F)(F)c1nc(-c2ccc3nn(Cc4ccccc4)cc3c2)no1 [IV-15, 2-Benzyl-5-[5-(trifluoromethyl)-1,2,4-oxadiazol-3-yl]-1H-indazole]

chromatographic logP: 4.39
Compound: FC(F)(F)c1nc(-c2ccc3c(cnn3Cc3ccccc3)c2)no1 [IV-17, 1-Benzyl-5-[5-(trifluoromethyl)-1,2,4-oxadiazol-3-yl]-1H-indazole]

Compound: CC(=O)N1C(c2ccc(OC(=O)N(C)C)cc2)=NOC1C(F)(F)F (stereo not shown) [Compound I-16, 4-[Acetyl-5-(trifluoromethyl)-4,5-dihydro-1,2,4-oxadiazol-3-yl]phenyl dimethylcarbamate]
chromatographic logP [2]: 2.62

Compound: CN(C)C(=O)Oc1ccc(C2=NOC(C(F)(F)F)N2)cc1 (stereo not shown) [Compound I-03, 4-[5-(Trifluoromethyl)-4,5-dihydro-1,2,4-oxadiazol-3-yl]phenyl dimethylcarbamate]
chromatographic logP [2]: 2.19

chromatographic logP [1]: 3
Compound: FC(F)(F)C1NC(c2ccc3c(cnn3Cc3ccccc3)c2)=NO1 (stereo not shown) [Compound I-23, 1-Benzyl-5-[(trifluoromethyl)-4,5-dihydro-1,2,4-oxadiazol-3-yl]-2H-indazole]

Compound: CN(C)C(=O)Oc1ccc(-c2noc(C(F)(F)F)n2)cc1 [IV-05, 4-[5-(Trifluoromethyl)-1,2,4-oxadiazol-3-yl]phenyl dimethylcarbamate]
chromatographic logP (method [a]: LC-UV, acidic range, 0.1% formic acid in water and acetonitrile, intermediates of formula (IV), read-out: LogP): 3.37
